According to PMC6717004 (Toxicology in vitro : an international journal published in …, 2019):
Where two headings read alike, the source gives them in different places. Marks after values point to notes of the source that are not given here.

Assays:
[1] = test system: human plasma; conditions: cited from earlier work; for reported Fub based on RED: human plasma, ref Wetmore et al.
[2] = test system: pooled human plasma; assay: Rapid Equilibrium Dialysis; type: in vitro ADME; conditions: 10 μM, 37 °C, 4 hours, 8K MWCO membrane
[3] = type: in vitro ADME; conditions: RED with PBS in both chambers, 10 μM, 4 hours, 8K MWCO
[4] = test system: pooled human plasma; assay: Solid Phase Micro-Extraction; type: in vitro ADME; conditions: 10 μM, room temperature, C18 fibers
[5] = test system: human plasma; conditions: ref Musteata et al., 2006; cited from earlier work
[6] = ref Wetmore, 2015, Wetmore et al., 2012

c1cc2c3c(cccc3c1)CC2 [Acenaphthene]
Literature % unbound (equilibrium dialysis) [1, 6]: 4.5%^b

c1ccc(-c2ccccc2)cc1 [Biphenyl]
Literature % unbound (equilibrium dialysis) [1]: 1.6%^b

CNC(=O)Oc1cccc2ccccc12 [Carbaryl]
reported Fub based on RED [1]; 2012: 70% | Literature % unbound (equilibrium dialysis) [1, 6]: 69%^b

COc1cc(N)c(Cl)cc1C(=O)NC1CCN(CCCOc2ccc(F)cc2)CC1OC (stereo not drawn) [Cisapride, reference compound]
Literature % unbound (equilibrium dialysis) ([1]; ref FDA package insert): 2-3%^c | unbound fraction (Fub) by RED [2]: most highly bound

CC(C)NCC(O)c1ccc(O)c(O)c1 (stereo not drawn) [Isoproterenol, reference compound]
Literature % unbound (equilibrium dialysis) ([1]; ref Kelly and McDevitt, 1978): 35%^a | unbound fraction (Fub) by RED [2]: mostly free

c1ccc2ccccc2c1 [Naphthalene]
protein-free free fraction (equilibration percentage) [3]: > 80% | reported Fub based on RED [1]; 2012: ~ 2%

CC1(C)C(C=C(Cl)Cl)C1C(=O)OCc1cccc(Oc2ccccc2)c1 (stereo not drawn) [Permethrin]
reported Fub based on RED [1]; 2012: 0%

Cc1nc(N(C)C)nc(OC(=O)N(C)C)c1C [Pirimicarb]
Literature % unbound (equilibrium dialysis) [1, 6]: 16%^b

CC(C)NCC(O)COc1cccc2ccccc12 (stereo not drawn) [Propranolol]
unbound fraction (Fub) by SPME [4]: consistent with the reported value | Literature % unbound (SPME) [5]: 25%^e

c1cc2ccc3cccc4ccc(c1)c2c34 [Pyrene]
Literature % unbound (equilibrium dialysis) [1, 6]: 2.4%^b
